Measured values from patent publication US7695908B2, “Methods for predicting methotrexate polyglutamate levels using pharmacogenetics” (Prometheus Laboratories Inc., priority 2004, dated 2010).

Assay: HPLC quantification of red blood cell MTXPG concentrations in rheumatoid arthritis patients on low-dose MTX therapy, with regression on age, dose, route and RFC-1/GGH genotype
Assay type: in vivo, human
Conditions: for Change of RBC level with increased pharmacogenetic index (PI, from −1 to 1): unadjusted, Kruskall-Wallis, FIG. 3
Description: The study was cross-sectional at three investigational sites (The Center of Rheumatology, Albany, N.Y.; Rheumatology Practice, Knoxville, Tenn.; Radiant Research, Daytona Beach, Fla.). To be eligible, patients (≧18 yrs.) had to meet the revised criteria of the American Rheumatism Association for Rheumatoid Arthritis and had to have received low-dose MTX therapy for at least three months. Other medications included low-dose corticosteroids (<10 mg day) and folic acid supplementation for the prevention of side-effects induced by MTX. Local Institutional Review Board approved the study and patient consent was obtained for each patient. Patients' demographics were collected at the time of enrollment in the study. Blood was drawn in EDTA-containing tubes and shipped overnight to Prometheus Laboratories Inc. (San Diego, Calif.) for analysis.
Red blood cell MTXPG concentrations were measured as described previously using an HPLC-fluorometry procedure with a post-column photo-oxidation technique (Dervieux et al., Clin. Chem., 49:1632-1641 (2003)). Results are expressed in nmol/L as either total MTXPG1-5 levels or total long-chain MTXG3-5 levels (i.e., the sum of MTXP3+MTXPG4+MTXPG5 levels).
The statistical analysis consisted of a multivariate linear or logistic regression, with MTXPG levels (i.e., MTXPG1-5, MTXPG3-5) as dependent variables and predictors (i.e., age, weekly MTX dose, route of administration, and RFC-1 and GGH genotypes) as independent variables. For calculating a pharmacogenetic index, the genotypes were dichotomized as homozygous mutants (RFC-1 80A/A and GGH −401T/T; value of 1) versus wild-type or heterozygous (RFC-1 80G/G or 80G/A and GGH −401C/C or −401C/T; value of 0) as appropriate. Group comparisons were performed with the Kruskall-Wallis ANOVA. The likelihood of having MTXPG levels above group median was derived from the logistic regression model. Odds ratio (OR) and probability (P) are given with a 95% confidence interval (CI). Estimates are given with standard error.

Structure (SMILES)	Change of RBC level with increased pharmacogenetic index (PI, from −1 to 1)	RBC MTXPG levels after injected MTX compared to oral administration (multivariate linear regression, route p<0.04)
CN(Cc1cnc2nc(N)nc(N)c2n1)c1ccc(C(=O)NC(CCC(=O)NC(CCC(=O)O)C(=O)O)C(=O)O)cc1 (stereo not drawn) [MTXPG2]	no significant differences	
CN(Cc1cnc2nc(N)nc(N)c2n1)c1ccc(C(=O)N[C@@H](CCC(=O)N[C@@H](CCC(=O)N[C@@H](CCC(=O)O)C(=O)O)C(=O)O)C(=O)O)cc1 [MTXPG3]	increased	
CN(Cc1cnc2nc(N)nc(N)c2n1)c1ccc(C(=O)N[C@@H](CCC(=O)O)C(=O)O)cc1 [MTX, methotrexate]	no significant differences	higher MTXPG levels

The next lines start with results.

Change of RBC level with increased pharmacogenetic index (PI, from −1 to 1)	Structure (SMILES)	RBC MTXPG levels after injected MTX compared to oral administration (multivariate linear regression, route p<0.04)
increased	CN(Cc1cnc2nc(N)nc(N)c2n1)c1ccc(C(=O)NC(CCC(=O)NC(CCC(=O)NC(CCC(=O)NC(CCC(=O)NC(CCC(=O)O)C(=O)O)C(=O)O)C(=O)O)C(=O)O)C(=O)O)cc1 (stereo not drawn) [MTXPG5]	
increased	CN(Cc1cnc2nc(N)nc(N)c2n1)c1ccc(C(=O)N[C@@H](CCC(=O)N[C@@H](CCC(=O)N[C@@H](CCC(=O)N[C@@H](CCC(=O)O)C(=O)O)C(=O)O)C(=O)O)C(=O)O)cc1 [MTXPG4]	
